According to the supplement of paper PMC10307832:

Columns and labels:
Assay in all cases: relative viability (nuclei count vs DMSO), 5 days (fraction); higher = more cells survive
LCLC-103H = system: LCLC-103H
Method in brief: (§1)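 For relative viability, nuclei counts in treated wells were divided by those in vehicle wells. Lung cancer cell lines had been pin-tool dosed in 1536-well plates the day after seeding and cultured for 5 days, then fixed and stained in one step (final 0.05% Triton X-100, 1% formaldehyde, 1 ug/ml Hoechst) and imaged at 4×. Doses were one drug alone or a fixed anchor-drug dose plus five library-drug doses (not always all listed) in √10 steps, and values are duplicate-plate medians.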

NCI-H520 = system: NCI-H520
Method in brief: as §1

Calu-6 = system: Calu-6
Method in brief: as §1

EBC-1 = system: EBC-1
Method in brief: as §1

IA-LM = system: IA-LM
Method in brief: as §1

NCI-H1355 = system: NCI-H1355
Method in brief: as §1

NCI-H1703 = system: NCI-H1703
Method in brief: as §1

NCI-H1299 = system: NCI-H1299
Method in brief: as §1

SMILES: CC1(C)CCC(c2ccc(Cl)cc2)=C(CN2CCN(c3ccc(C(=O)NS(=O)(=O)c4ccc(N[C@H](CCN5CCOCC5)CSc5ccccc5)c(S(=O)(=O)C(F)(F)F)c4)cc3)CC2)C1 [Navitoclax] + CC(C)C[C@H](NC(=O)[C@H](Cc1ccccc1)NC(=O)c1cnccn1)B(O)O [Bortezomib] (partner 0.002 µM)
- relative viability (LCLC-103H; first compound 0.005 µM): 1.13
- relative viability (LCLC-103H; first compound 0.01581 µM): 1.25
- relative viability (LCLC-103H; first compound 0.05 µM): 1.18
- relative viability (LCLC-103H; first compound 0.1581 µM): 1.15
- relative viability (LCLC-103H; first compound 0.5 µM): 1.06
- relative viability (NCI-H520; first compound 0.005 µM): 0.577
- relative viability (NCI-H520; first compound 0.01581 µM): 0.743
- relative viability (NCI-H520; first compound 0.05 µM): 0.869
- relative viability (NCI-H520; first compound 0.1581 µM): 0.6
- relative viability (NCI-H520; first compound 0.5 µM): 0.712
- relative viability (Calu-6; first compound 0.005 µM): 0.999
- relative viability (Calu-6; first compound 0.01581 µM): 1.16
- relative viability (Calu-6; first compound 0.05 µM): 1.13
- relative viability (Calu-6; first compound 0.1581 µM): 0.972
- relative viability (Calu-6; first compound 0.5 µM): 0.877
- relative viability (EBC-1; first compound 0.005 µM): 0.614
- relative viability (EBC-1; first compound 0.01581 µM): 0.649
- relative viability (EBC-1; first compound 0.05 µM): 0.575
- relative viability (EBC-1; first compound 0.1581 µM): 0.616
- relative viability (EBC-1; first compound 0.5 µM): 0.383
- relative viability (IA-LM; first compound 0.005 µM): 0.926
- relative viability (IA-LM; first compound 0.01581 µM): 0.818
- relative viability (IA-LM; first compound 0.05 µM): 0.824
- relative viability (IA-LM; first compound 0.1581 µM): 0.896
- relative viability (IA-LM; first compound 0.5 µM): 0.747
- relative viability (NCI-H1355; first compound 0.005 µM): 1.02
- relative viability (NCI-H1355; first compound 0.01581 µM): 1.24
- relative viability (NCI-H1355; first compound 0.05 µM): 1.06
- relative viability (NCI-H1355; first compound 0.1581 µM): 1.15
- relative viability (NCI-H1355; first compound 0.5 µM): 1.14
- relative viability (NCI-H1703; first compound 0.005 µM): 0.214
- relative viability (NCI-H1703; first compound 0.01581 µM): 0.275
- relative viability (NCI-H1703; first compound 0.05 µM): 0.313
- relative viability (NCI-H1703; first compound 0.1581 µM): 0.65
- relative viability (NCI-H1703; first compound 0.5 µM): 0.224
- relative viability (NCI-H1299; first compound 0.005 µM): 1.04
- relative viability (NCI-H1299; first compound 0.01581 µM): 1.12
- relative viability (NCI-H1299; first compound 0.05 µM): 1.01
- relative viability (NCI-H1299; first compound 0.1581 µM): 1.05
- relative viability (NCI-H1299; first compound 0.5 µM): 1.02

SMILES: O=C(O)c1ccc(-c2c[nH]c3ncc(-c4ccccc4)cc23)cc1C1CCCC1 + CC(C)C[C@H](NC(=O)[C@H](Cc1ccccc1)NC(=O)c1cnccn1)B(O)O [Bortezomib] (partner 0.002 µM)
- relative viability (LCLC-103H; first compound 0.04 µM): 1.11
- relative viability (LCLC-103H; first compound 0.1265 µM): 1.15
- relative viability (LCLC-103H; first compound 0.4 µM): 1
- relative viability (LCLC-103H; first compound 1.265 µM): 1.05
- relative viability (NCI-H520; first compound 0.04 µM): 0.567
- relative viability (NCI-H520; first compound 0.1265 µM): 0.717
- relative viability (NCI-H520; first compound 0.4 µM): 0.482
- relative viability (NCI-H520; first compound 1.265 µM): 0.327
- relative viability (Calu-6; first compound 0.04 µM): 0.912
- relative viability (Calu-6; first compound 0.1265 µM): 1
- relative viability (Calu-6; first compound 0.4 µM): 0.907
- relative viability (Calu-6; first compound 1.265 µM): 0.661
- relative viability (EBC-1; first compound 0.04 µM): 0.567
- relative viability (EBC-1; first compound 0.1265 µM): 0.583
- relative viability (EBC-1; first compound 0.4 µM): 0.452
- relative viability (EBC-1; first compound 1.265 µM): 0.308
- relative viability (IA-LM; first compound 0.04 µM): 0.915
- relative viability (IA-LM; first compound 0.1265 µM): 0.868
- relative viability (IA-LM; first compound 0.4 µM): 0.761
- relative viability (IA-LM; first compound 1.265 µM): 0.658
- relative viability (NCI-H1355; first compound 0.04 µM): 1.18
- relative viability (NCI-H1355; first compound 0.1265 µM): 1.29
- relative viability (NCI-H1355; first compound 0.4 µM): 1.22
- relative viability (NCI-H1355; first compound 1.265 µM): 1.04
- relative viability (NCI-H1703; first compound 0.1265 µM): 0.235
- relative viability (NCI-H1703; first compound 0.4 µM): 0.3
- relative viability (NCI-H1703; first compound 1.265 µM): 0.433
- relative viability (NCI-H1299; first compound 0.04 µM): 1.05
- relative viability (NCI-H1299; first compound 0.1265 µM): 1.03
- relative viability (NCI-H1299; first compound 0.4 µM): 0.986
- relative viability (NCI-H1299; first compound 1.265 µM): 0.893

SMILES: NC(=O)Nc1cc(-c2cccc(F)c2)sc1C(=O)N[C@H]1CCCNC1 [AZD7762] + CC(C)C[C@H](NC(=O)[C@H](Cc1ccccc1)NC(=O)c1cnccn1)B(O)O [Bortezomib] (partner 0.002 µM)
- relative viability (LCLC-103H; first compound 0.01 µM): 1.19
- relative viability (LCLC-103H; first compound 0.03162 µM): 1.08
- relative viability (LCLC-103H; first compound 0.1 µM): 1.25
- relative viability (LCLC-103H; first compound 0.3162 µM): 0.95
- relative viability (LCLC-103H; first compound 1 µM): 0.867
- relative viability (NCI-H520; first compound 0.01 µM): 0.471
- relative viability (NCI-H520; first compound 0.03162 µM): 0.659
- relative viability (NCI-H520; first compound 0.1 µM): 0.525
- relative viability (NCI-H520; first compound 0.3162 µM): 0.27
- relative viability (NCI-H520; first compound 1 µM): 0.289
- relative viability (Calu-6; first compound 0.01 µM): 1.03
- relative viability (Calu-6; first compound 0.03162 µM): 0.96
- relative viability (Calu-6; first compound 0.1 µM): 0.782
- relative viability (Calu-6; first compound 0.3162 µM): 0.245
- relative viability (Calu-6; first compound 1 µM): 0.152
- relative viability (EBC-1; first compound 0.01 µM): 0.633
- relative viability (EBC-1; first compound 0.03162 µM): 0.508
- relative viability (EBC-1; first compound 0.1 µM): 0.566
- relative viability (EBC-1; first compound 0.3162 µM): 0.493
- relative viability (EBC-1; first compound 1 µM): 0.309
- relative viability (IA-LM; first compound 0.01 µM): 1.05
- relative viability (IA-LM; first compound 0.03162 µM): 0.851
- relative viability (IA-LM; first compound 0.1 µM): 1.22
- relative viability (IA-LM; first compound 0.3162 µM): 1.14
- relative viability (IA-LM; first compound 1 µM): 0.253
- relative viability (NCI-H1355; first compound 0.01 µM): 1.17
- relative viability (NCI-H1355; first compound 0.03162 µM): 1.23
- relative viability (NCI-H1355; first compound 0.1 µM): 1.21
- relative viability (NCI-H1355; first compound 0.3162 µM): 1.27
- relative viability (NCI-H1355; first compound 1 µM): 1.19
- relative viability (NCI-H1703; first compound 0.01 µM): 0.409
- relative viability (NCI-H1703; first compound 0.03162 µM): 0.182
- relative viability (NCI-H1703; first compound 0.1 µM): 0.167
- relative viability (NCI-H1703; first compound 0.3162 µM): 0.176
- relative viability (NCI-H1703; first compound 1 µM): 0.124
- relative viability (NCI-H1299; first compound 0.01 µM): 1.07
- relative viability (NCI-H1299; first compound 0.03162 µM): 1.04
- relative viability (NCI-H1299; first compound 0.1 µM): 1.04
- relative viability (NCI-H1299; first compound 0.3162 µM): 1.04
- relative viability (NCI-H1299; first compound 1 µM): 0.964
